Laboratory results reported in patent US11040981B2, “Pyrrolotriazine compounds and methods of inhibiting TAM kinases” (Syros Pharmaceuticals, Inc., priority 2017, dated 2021).

How the values were obtained:
[1] = target: T1, FLT3 (Homo sapiens, UniProt P36888); test: TR-FRET kinase activity assay, FLT3; format: biochemical; settings: ATP at Km, 60 minutes
T1 sequence (P36888 27-993): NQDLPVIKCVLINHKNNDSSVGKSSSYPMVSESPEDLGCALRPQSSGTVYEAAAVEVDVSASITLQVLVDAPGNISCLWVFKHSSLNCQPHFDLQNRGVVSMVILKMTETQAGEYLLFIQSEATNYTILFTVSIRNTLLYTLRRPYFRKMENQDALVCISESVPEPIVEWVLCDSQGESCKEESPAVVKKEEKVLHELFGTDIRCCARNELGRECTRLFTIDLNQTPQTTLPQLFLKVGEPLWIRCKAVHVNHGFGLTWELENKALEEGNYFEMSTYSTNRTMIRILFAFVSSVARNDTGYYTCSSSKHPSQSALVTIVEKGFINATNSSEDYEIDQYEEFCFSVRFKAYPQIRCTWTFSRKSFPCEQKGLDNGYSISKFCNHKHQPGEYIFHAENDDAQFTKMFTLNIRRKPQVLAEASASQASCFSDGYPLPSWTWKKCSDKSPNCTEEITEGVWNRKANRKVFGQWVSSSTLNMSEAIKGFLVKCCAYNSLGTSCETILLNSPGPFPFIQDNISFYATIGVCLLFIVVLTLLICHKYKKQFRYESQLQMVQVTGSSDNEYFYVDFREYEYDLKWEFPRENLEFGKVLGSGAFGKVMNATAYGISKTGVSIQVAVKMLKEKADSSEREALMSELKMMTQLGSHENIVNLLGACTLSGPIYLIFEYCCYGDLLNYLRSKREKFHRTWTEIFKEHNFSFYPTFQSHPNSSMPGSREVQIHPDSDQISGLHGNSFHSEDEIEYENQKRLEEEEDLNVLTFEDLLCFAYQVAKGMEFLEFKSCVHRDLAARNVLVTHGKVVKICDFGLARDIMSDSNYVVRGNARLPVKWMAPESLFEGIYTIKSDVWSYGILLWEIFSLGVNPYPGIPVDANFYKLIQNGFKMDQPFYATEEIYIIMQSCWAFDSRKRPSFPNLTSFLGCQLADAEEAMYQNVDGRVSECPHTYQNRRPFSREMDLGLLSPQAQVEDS
Summary of the method: (§1)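 Inhibition is measured as loss of phospho-peptide formation: kinase, fluorescent tyrosine peptide and compound are combined, ATP is added at Km, and the reaction proceeds 60 min at RT in pH 7.5 HEPES buffer. An EDTA stop and Eu-labelled phospho-specific antibody allow TR-FRET detection for IC50 fitting.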

[2] = target: T2, AXL (Homo sapiens, UniProt P30530); test: TR-FRET kinase activity assay, AXL; format: biochemical; settings: ATP at Km, 60 minutes
T2 sequence (P30530 26-894): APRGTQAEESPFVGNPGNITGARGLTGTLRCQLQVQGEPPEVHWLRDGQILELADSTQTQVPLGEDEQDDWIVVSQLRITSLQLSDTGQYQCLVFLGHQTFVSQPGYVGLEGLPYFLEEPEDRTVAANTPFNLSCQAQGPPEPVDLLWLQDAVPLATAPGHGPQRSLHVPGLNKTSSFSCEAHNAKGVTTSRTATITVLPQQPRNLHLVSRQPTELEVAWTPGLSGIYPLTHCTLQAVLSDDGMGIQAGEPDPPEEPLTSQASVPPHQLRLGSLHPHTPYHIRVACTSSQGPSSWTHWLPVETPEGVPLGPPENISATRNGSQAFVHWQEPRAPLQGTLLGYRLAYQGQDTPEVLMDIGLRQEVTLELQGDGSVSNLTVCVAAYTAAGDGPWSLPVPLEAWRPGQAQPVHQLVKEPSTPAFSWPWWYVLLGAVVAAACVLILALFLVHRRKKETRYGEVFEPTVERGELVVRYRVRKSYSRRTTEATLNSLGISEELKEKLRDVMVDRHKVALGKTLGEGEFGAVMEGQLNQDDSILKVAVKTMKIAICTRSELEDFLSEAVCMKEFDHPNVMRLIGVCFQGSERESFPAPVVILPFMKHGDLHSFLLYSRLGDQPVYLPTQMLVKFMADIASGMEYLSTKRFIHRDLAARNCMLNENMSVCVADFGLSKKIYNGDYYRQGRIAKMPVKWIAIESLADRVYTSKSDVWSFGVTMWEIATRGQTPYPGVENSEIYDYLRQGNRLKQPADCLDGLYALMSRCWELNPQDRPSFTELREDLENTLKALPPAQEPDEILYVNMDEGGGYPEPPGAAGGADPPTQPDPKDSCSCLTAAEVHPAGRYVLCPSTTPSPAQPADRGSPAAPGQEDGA
Summary of the method: as §1

Row | SMILES | IC50 [1] [nM] | IC50 [2] [nM]
1 | COC[C@H](C)Nc1ncc2c(-c3cnn(C(C)(C)C(=O)C4C[C@H]5COC[C@H]5C4)c3)cc([C@H]3CC[C@H](O)CC3)n2n1 (stereo partly shown) [Compound 319] | 1000 to 10000 | ≤ 100
2 | COC[C@H](C)Nc1ncc2c(-c3cnn(C(C)(C)C(=O)N4C[C@@H](C)O[C@@H](C)C4)c3)cc([C@H]3CC[C@H](O)CC3)n2n1 [Compound 320] | 1000 to 10000 | ≤ 100
3 | Cc1ccc(-c2cc([C@H]3CC[C@H](O)CC3)n3nc(N[C@@H](C)COC(F)F)ncc23)cn1 [Compound 321] | ≤ 100 | ≤ 100
4 | COCC(C)Nc1ncc2c(-c3cnn(Cc4ccc(=O)n(C)c4)c3)cc(C3CCC(O)CC3)n2n1 (stereo not shown) [Compound 322] | 100 to 1000 | ≤ 100
5 | COC[C@H](C)Nc1ncc2c(-c3cnn(C4CCS(=O)(=O)CC4)c3)cc([C@H]3CC[C@H](O)CC3)n2n1 [Compound 323] | 100 to 1000 | ≤ 100
6 | COC[C@H](C)Nc1ncc2c(-c3cnn(C[C@H]4CCC(=O)N4)c3)cc([C@H]3CC[C@H](O)CC3)n2n1 [Compound 324] | 100 to 1000 | ≤ 100
7 | COC[C@H](C)Nc1ncc2c(-c3cnn(C(C)(C)C(=O)N4CC5(COC5)C4)c3)cc([C@H]3CC[C@H](O)CC3)n2n1 [Compound 326] | 1000 to 10000 | ≤ 100
8 | COC[C@H](C)Nc1ncc2c(-c3cnn(C(C)(C)C(=O)N4C[C@H]5CC[C@@H](C4)O5)c3)cc([C@H]3CC[C@H](O)CC3)n2n1 [Compound 327] | 1000 to 10000 | ≤ 100
9 | COC[C@H](C)Nc1ncc2c(-c3cnn(C(C)(C)C(=O)N4C[C@H](C)O[C@@H](C)C4)c3)cc([C@H]3CC[C@H](O)CC3)n2n1 [Compound 328] | 1000 to 10000 | ≤ 100
10 | COC[C@H](C)Nc1ncc2c(-c3cnn(Cc4cncc(C)n4)c3)cc([C@H]3CC[C@H](O)CC3)n2n1 [Compound 329] | 100 to 1000 | ≤ 100
11 | COC[C@H](C)Nc1ncc2c(-c3cnn(C4CC(C(=O)OC)C4)c3)cc([C@H]3CC[C@H](O)CC3)n2n1 (stereo partly shown) [Compound 330] | 100 to 1000 | ≤ 100
12 | COC[C@H](C)Nc1ncc2c(-c3cnn(C(C)(C)C(=O)N4CCS(=O)(=O)CC4)c3)cc([C@H]3CC[C@H](O)CC3)n2n1 [Compound 331, 1-(1,1-dioxidothiomorpholino)-2-(4-(7-((trans)-4-hydroxycyclohexyl)-2-(((S)-1-methoxypropan-2-yl)amino)pyrrolo[2,1-f][1,2,4]triazin-5-yl)-1H-pyrazol-1-yl)-2-methylpropan-1-one] | 100 to 1000 | ≤ 100
13 | COC[C@H](C)Nc1ncc2c(-c3cnn(Cc4cn[nH]c4)c3)cc([C@H]3CC[C@H](O)CC3)n2n1 [Compound 332] | 100 to 1000 | ≤ 100
14 | COC[C@H](C)Nc1ncc2c(-c3cnn(Cc4cc(C)nn4C)c3)cc([C@H]3CC[C@H](O)CC3)n2n1 [Compound 333] | 100 to 1000 | ≤ 100
15 | CNC(=O)c1ncc(-c2cc([C@H]3CC[C@H](O)CC3)n3nc(N[C@@H](C)COC)ncc23)cn1 [Compound 334] | 1000 to 10000 | 100 to 1000
16 | CNC(=O)c1cc(-c2cc([C@H]3CC[C@H](O)CC3)n3nc(N[C@@H](C)COC)ncc23)cc(C)n1 [Compound 335] | 1000 to 10000 | 100 to 1000
17 | CNS(=O)(=O)c1ccc(-c2cc([C@H]3CC[C@H](O)CC3)n3nc(N[C@@H](C)COC)ncc23)cn1 [Compound 336] | 100 to 1000 | ≤ 100
18 | COC[C@H](C)Nc1ncc2c(-c3ccnc(NC(C)C)c3)cc([C@H]3CC[C@H](O)CC3)n2n1 [Compound 337] | 100 to 1000 | ≤ 100
19 | COC[C@H](C)Nc1ncc2c(-c3ccnc(N4CCN(S(C)(=O)=O)CC4)c3)cc([C@H]3CC[C@H](O)CC3)n2n1 [Compound 338] | 100 to 1000 | ≤ 100
20 | COC[C@H](C)Nc1ncc2c(-c3ccnc(N4CCCC4)c3)cc([C@H]3CC[C@H](O)CC3)n2n1 [Compound 339] | 100 to 1000 | ≤ 100
21 | COC[C@H](C)Nc1ncc2c(-c3ccnc(N4CCNC(=O)C4)c3)cc([C@H]3CC[C@H](O)CC3)n2n1 [Compound 340] | 100 to 1000 | ≤ 100
22 | COC[C@H](C)Nc1ncc2c(-c3ccnc(OC4CCCN(C)C4)c3)cc([C@H]3CC[C@H](O)CC3)n2n1 (stereo partly shown) [Compound 341] | 100 to 1000 | ≤ 100
23 | COC[C@H](C)Nc1ncc2c(-c3ccnc(OC4CCN(C)CC4)c3)cc([C@H]3CC[C@H](O)CC3)n2n1 [Compound 342] | 100 to 1000 | ≤ 100
24 | COC[C@H](C)Nc1ncc2c(-c3ccnc(OC(C)C)c3)cc([C@H]3CC[C@H](O)CC3)n2n1 [Compound 343] | 1000 to 10000 | ≤ 100
25 | COC[C@H](C)Nc1ncc2c(-c3ccnc(N4CCN(C(C)=O)CC4)c3)cc([C@H]3CC[C@H](O)CC3)n2n1 [Compound 344] | 100 to 1000 | ≤ 100
26 | COCCOc1cc(-c2cc([C@H]3CC[C@H](O)CC3)n3nc(N[C@@H](C)COC)ncc23)ccn1 [Compound 345] | 1000 to 10000 | ≤ 100
